The term EC50 denotes the concentration giving half of the maximal effect.

Counter-ions that a name gives are not always drawn.

This assay has as its system HBV. The settings on record: Hepatitis B virus, HePAD38, 144 h, read-out: Cell Activity (EC50).
Consider `CCc1cccc2[nH]c(C(=O)N3CCn4nc(NS(=O)(=O)C5CC5)cc4C3)cc12` [Example 40, N-[5-(4-ethyl-1H-indole-2-carbonyl)-4H,5H,6H,7H-pyrazolo[1,5-a]pyrazin-2-yl]cyclopropanesulfonamide], for which the EC50 is below 1000 nM.

Regarding `O=C(Nc1cc2n(n1)CCN(C(=O)c1cc3ccccc3[nH]1)C2)C1CCNCC1` [Example 41, N-[5-(1H-indole-2-carbonyl)-4H,5H,6H,7H-pyrazolo[1,5-a]pyrazin-2-yl]piperidine-4-carboxamide Hydrochloride], the EC50 was below 1000 nM.

Take `CC(=O)N1CCC(C(=O)Nc2cc3n(n2)CCN(C(=O)c2cc4ccccc4[nH]2)C3)CC1` [Example 42, 1-acetyl-N-[5-(1H-indole-2-carbonyl)-4H,5H,6H,7H-pyrazolo[1,5-a]pyrazin-2-yl]piperidine-4-carboxamide]: the EC50 was below 1000 nM.

On to `O=C(c1cc2ccccc2[nH]1)N1CCn2nc(NS(=O)(=O)Cc3ccccc3)cc2C1` [Example 43, N-[5-(1H-indole-2-carbonyl)-4H,5H,6H,7H-pyrazolo[1,5-a]pyrazin-2-yl]-1-phenylmethanesulfonamide], for which the EC50 was below 1000 nM.

For the compound `CCS(=O)(=O)Nc1cc2n(n1)CCN(C(=O)c1cc3ccccc3[nH]1)C2` [Example 45, N-[5-(1H-indole-2-carbonyl)-4H,5H,6H,7H-pyrazolo[1,5-a]pyrazin-2-yl]ethane-1-sulfonamide], the 50% effective concentration (EC50) was below 1000 nM.

Regarding `Cc1noc(C)c1S(=O)(=O)Nc1cc2n(n1)CCN(C(=O)c1cc3ccccc3[nH]1)C2` [Example 46, N-[5-(1H-indole-2-carbonyl)-4H,5H,6H,7H-pyrazolo[1,5-a]pyrazin-2-yl]-3,5-dimethyl-1,2-oxazole-4-sulfonamide], the EC50 was below 1000 nM.

For the compound `CC(C)S(=O)(=O)Nc1cc2n(n1)CCN(C(=O)c1cc3ccccc3[nH]1)C2` [Example 47, N-[5-(1H-indole-2-carbonyl)-4H,5H,6H,7H-pyrazolo[1,5-a]pyrazin-2-yl]propane-2-sulfonamide], the concentration for a half-maximal effect (EC50) was below 1000 nM.

Regarding `Cc1nc(S(=O)(=O)Nc2cc3n(n2)CCN(C(=O)c2cc4ccccc4[nH]2)C3)cn1C` [Example 48, [5-(1H-indole-2-carbonyl)-4H,5H,6H,7H-pyrazolo[1,5-a]pyrazin-2-yl]-1,2-dimethyl-1H-imidazole-4-sulfonamide], the EC50 lay in the range of 1000 to 10000 nM.

As to `Cn1cc(S(=O)(=O)Nc2cc3n(n2)CCN(C(=O)c2cc4ccccc4[nH]2)C3)cn1` [Example 49, N-[5-(1H-indole-2-carbonyl)-4H,5H,6H,7H-pyrazolo[1,5-a]pyrazin-2-yl]-1-methyl-1H-pyrazole-4-sulfonamide], the EC50 is below 1000 nM.

On to `O=C(c1cc2ccccc2[nH]1)N1CCn2nc(NS(=O)(=O)c3cccnc3)cc2C1` [Example 50, N-[5-(1H-indole-2-carbonyl)-4H,5H,6H,7H-pyrazolo[1,5-a]pyrazin-2-yl]pyridine-3-sulfonamide], for which the EC50 is below 1000 nM.

Consider `O=C(c1cc2ccccc2[nH]1)N1CCn2nc(NS(=O)(=O)C3CCCCC3)cc2C1` [Example 51, N-[5-(1H-indole-2-carbonyl)-4H,5H,6H,7H-pyrazolo[1,5-a]pyrazin-2-yl]cyclohexanesulfonamide], for which the EC50 is below 1000 nM.

`COCC1(S(=O)(=O)Nc2cc3n(n2)CCN(C(=O)c2cc4ccccc4[nH]2)C3)CC1` [Example 52, N-[5-(1H-indole-2-carbonyl)-4H,5H,6H,7H-pyrazolo[1,5-a]pyrazin-2-yl]-1-(methoxymethyl)cyclopropane-1-sulfonamide]: the EC50 is below 1000 nM.

Consider `O=C(c1cc2ccccc2[nH]1)N1CCn2nc(NS(=O)(=O)C3CCOCC3)cc2C1` [Example 53, N-[5-(1H-indole-2-carbonyl)-4H,5H,6H,7H-pyrazolo[1,5-a]pyrazin-2-yl]oxane-4-sulfonamide], for which the EC50 is below 1000 nM.

For `COCC1(CNc2cc3n(n2)CCN(C(=O)c2cc4ccccc4[nH]2)C3)CC1` [Example 54, 5-(1H-indole-2-carbonyl)-N-{[1-(methoxymethyl)cyclopropyl]methyl}-4H,5H,6H,7H-pyrazolo[1,5-a]pyrazin-2-amine], the EC50 is below 1000 nM.

Source of the values: patent US20220081444A1, “6,7-DIHYDRO-4H-PYRAZOLO[1,5-A]PYRAZINE INDOLE-2-CARBOXAMIDES ACTIVE AGAINST THE HEPATITIS B VIRUS (HBV)” (AiCuris GmbH & Co. KG, priority 2018, published 2022).
